From patent US11701409B2, “Dosing and use of long-acting CLR/ramp agonists” (Adepthera LLC, priority 2016, dated 2023)
Where two headings read alike, the source gives them in different places. Blank lines part the entries; values can stand above or below the compound they belong to. No end group written: not given here.

Assays:
[1] = tested on: normal pregnant Sprague Dawley rats; assay: Blood pressure after bolus IP injection in instrumented normal pregnant Sprague Dawley rats; type: in vivo, rat; details: for duration of sustained reduction of blood pressure (hypotensive effect): bolus IP injection, 100 nmoles/kg, normal pregnant Sprague Dawley rats
Text: (§1) Bolus IP injection of the long-acting stable analog (100 nmoles/kg) led to a sustained reduction of blood pressure for 4 hr in normal pregnant Sprague Dawley rats, whereas the hypotensive effects of wild-type ADM disappeared within 2 hr (FIG. 1a). In addition, we compared the blood pressure-lowering effect of the long-acting stable analog in pregnant Sprague Dawley rats and pregnant spontaneous hypertensive rats (SHR). […] This characteristic not only allows less frequent dosing in clinical condition but also increases the therapeutic index of long-acting CLR/RAMP receptor agonists.

C57/B6 mice [2] = assay: Doxorubicin-induced cardiomyopathy in adult mice, heart weight; type: in vivo; details: for average heart weight: sixth day
Experimental: (§2) To evaluate the effects of the long-acting stable analog on heart failure, we treated 8-week-old C57/B6 mice with doxorubicin (10 mg/kg body weight) to induce cardiomyopathy. After the injection of doxorubicin, the animals were injected with wild-type ADM or the long-acting stable analog twice daily. After five days of treatment, the animals were sacrificed, and hearts were collected for weight determination individually. In addition, we collected blood samples for the determination of aspartate aminotransferase activity. Sham adult mice at the same ages were used as normal controls.

C57/B6 mice [3] = type: in vivo
Experimental: as §2
In a separate series of study, we evaluated the effects of stable analog on blood aspartate aminotransferase levels (FIG. 4b).

RUPP pregnant rats = assay: Reduced uterine perfusion pressure (RUPP) preeclampsia rat model, osmotic mini-pump infusion for 4 days; type: in vivo
Experimental: To evaluate the effects of the long-acting stable analog for the treatment of preeclampsia, resistant hypertension, hypertensive crisis, vascular ischemic injury, and pregnancy hypertension, we tested the analog in a reduced uterine perfusion pressure (RUPP) preeclampsia rat model. The model was first described by Dr. Joey P. Granger et al. (2000, Hypertension 37:1191-1195). Briefly, pregnant rats weighing 200-250 g at 14 days of gestation were anesthetized with pentobarbital (40 mg/kg, i.p.). The lower abdomen area was shaved and the skin was swabbed with surgical scrub (iodine and alcohol). A 3-cm skin incision was made at the midline. After a midline incision, the lower abdominal aorta was isolated and a silver clip (0.203 mm) was placed around the aorta above the iliac bifurcation. Because compensatory blood flow to the placenta occurs via an adaptive increase in […] blood flow during pregnancy, both right and left […] arcades were clipped (silver clip, 0.100 mm). RUPP rats were divided into two groups, and an osmotic mini-pump (ALZET) loaded with saline or the long-acting analog was implanted in the upper abdomen. The mini-pumps delivered the solution at a rate of 1 ul/hr. Sham pregnant rats were used as normal controls.
The incision was closed with absorbable braided surgical suture. After awake, animals were given buprenorphine 0.1 mg/kg s.c. once a day for three days. These procedures reduced uterine blood flow in the gravid rat by >40%, and cause hypertension and intrauterine growth restriction in the fetus.
After 4 days of the treatments, all rats were anesthetized and catheterized for measurement of blood pressure and heart rate. Animals were anesthetized with pentobarbital, and a Mikro-tip catheter (1.0 F pressure catheter, Miller, Tex.) was placed into the right carotid artery. After insertion, the catheter was advanced into the aorta, and stopped at the appearance of arterial pressure curve. The Mikro-tip catheter was connected to a Powerlab system, and blood pressure and heart rate was recorded and saved in a computer. In addition, the blood flow velocity above and below the artery constriction site was determined by a Doppler method.
After the hemodynamic measurement was completed (taking about 0.5-1 hr), rats were euthanized. The fetuses, placenta tissues, and hearts were harvested and weighed individually.

pregnant SHR rats = assay: Blood pressure after injection in pregnant spontaneous hypertensive rats (SHR); type: in vivo, rat; details: low dose 30 nmoles/kg
Text: as §1

[4] = high dosage 10 μg/kg/hr for four days
[5] = low dose 3.3 μg/kg/hr for four days

Compound: adrenomedullin (YRQSMNNFQGLRSFGCRFGTCTVQKLAHQIYQFTDKDKDNVAPRSKISPQGY; ends and bridges not checked; cysteine pairing not given here; UniProt P35318 95-146, looked up) [wild-type ADM, wild-type adrenomedullin, 52 amino acids, 1 intramolecular disulfide bond, ligand of CLR/RAMP receptors, reference compound]
duration of sustained reduction of blood pressure (hypotensive effect) [1]: ≤ 2 h
reduction of doxorubicin-induced loss of heart weight (C57/B6 mice [2]; co-treatment with doxorubicin 10 mg/kg, peptide injected twice daily, five days, Dox group vs. Dox+ADM group): not statistically significant

blood aspartate aminotransferase level (C57/B6 mice [3]; mouse, in vivo): 300.7±33.6 U/liter
Compound: COc1cccc2c1C(=O)c1c(O)c3c(c(O)c1C2=O)C[C@@](O)(C(=O)CO)C[C@@H]3O[C@H]1C[C@H](N)[C@H](O)[C@H](C)O1 [doxorubicin, reference compound]
average heart weight (C57/B6 mice [2]; doxorubicin 10 mg/kg body weight alone (Dox group)): 9.3 ± 0.4 mg

Compound: Ace-K(Pal)GCRFGTCTVQKLAHQIYQFTDKDKDNVAPRSKISPQGY-NH2 (KGCRFGTCTVQKLAHQIYQFTDKDKDNVAPRSKISPQGY; N-acetyl, palmitoyl-Lys, C-terminal amide; MOD_RES (1)..(1) …ON; LIPID (1)..(1) …; MOD_RES (39)..(39) AMIDATION) [long-acting stable analog]
duration of sustained reduction of blood pressure (hypotensive effect) [1]: 4 h
duration of blood pressure reduction ([1]; low dose 30 nmoles/kg, pregnant Sprague Dawley rats): 2 h
average heart weight (C57/B6 mice [2]; co-treatment with doxorubicin 10 mg/kg, peptide injected twice daily, five days): 11.0 ± 0.6 mg
average fetus weight (RUPP pregnant rats; [4]): 483 ± 92 mg
average heart weight (RUPP pregnant rats; [4]): 3.16±0.06 mg per gram body weight
average placenta weight (RUPP pregnant rats; [4]): 253 ± 36 mg
body weight lost during the four-day experimental period (RUPP pregnant rats; [4]): 3±3 grams
heart rate (RUPP pregnant rats; [4]): 379±8 beats/min
mean arterial pressure (RUPP pregnant rats; [4]): 93±5 mmHg
average fetus weight (RUPP pregnant rats; [5]): 577 ± 166 mg
average placenta weight (RUPP pregnant rats; [5]): 301 ± 46 mg
mean arterial pressure (RUPP pregnant rats; [5]): 107±4 mmHg
duration of hypotensive effects (pregnant SHR rats): over 8 hr
blood aspartate aminotransferase level (C57/B6 mice [3]; Dox + stable analog, high dose 50 nM/Kg body weight): 200.1±10.0 U/liter
effect on doxorubicin-elevated aspartate aminotransferase level (C57/B6 mice [3]; Dox + stable analog, low dose 25 nM/Kg BW): no statistically significant effect
